Here are results for one compound from article PMC6378217, “The lysyl oxidase like 2/3 enzymatic inhibitor, PXS‐5153A, reduces crosslinks and ameliorates fibrosis” (Journal of Cellular and Molecular Medicine, 2018).

SMILES strings stand for the structures. Where only a bound is given, the exact number is not on record here.

Experiment [1] has as its system LOXL2. Put plainly: LOXL2 enzymatic activity across all mammalian species tested. Format: biochemical. As for the experimental part:
(§1) The measurement of the enzymatic activity of all lysyl oxidase family members was based on the detection of hydrogen peroxide with an Amplex‐Red oxidation assay, as described in Zhou et al26 Recombinant human semicarbazide sensitive amine oxidase (SSAO/VAP1), diamine oxidase (DAO) and monoamine oxidases A and B (MAO‐A and MAO‐B) assays were performed as previously described.27 For detailed enzymatic procedures, see supporting information.
(§2) The measurement of the enzymatic activity of all lysyl oxidase family members was based on the detection of hydrogen peroxide with an Amplex-Red oxidation assay, as described in Zhou et al.[1]; miniaturised in 384 well format, with the appropriate combination of substrate and assay buffer for each individual enzyme. After a 30 minute pre-incubation of the enzyme at 37 °C with the test compound (or with different incubation times for the time-dependency assay), one volume of reaction mixture containing 120 μM Amplex Red (AR) (Life Technologies), 1.5 U/mL horseradish peroxidase (HRP) (Sigma-Aldrich) and the specific substrate was added to each sample. The relative fluorescence units (RFU) were then measured every 2.5 minutes for 30 minutes at 37°C, excitation 565 nm and emission 590, on a BMG Clariostar Microplate Reader. […]

The target in the next experiment is T1, Native human LOXL2 (Homo sapiens, UniProt Q9Y4K0).
T1 construct: separating LOXL2 in the portion at higher molecular weight; host or cells: IMR90 conditioned medium
Put plainly: Amplex-Red fluorometric enzymatic activity assay, native human LOXL2 (IMR90 conditioned medium). Type of experiment: biochemical. Particulars: 30 minute pre-incubation; average of at least three experiments. As for the experimental part: as §1, §2

In the next experiment the target is Adenosine A2A (Homo sapiens, UniProt P29274). In words: Eurofins Hit Profiling Screen. Conditions: 10 μmol/L. Type of experiment: binding.
Sequence of Adenosine A2A (P29274 whole entry): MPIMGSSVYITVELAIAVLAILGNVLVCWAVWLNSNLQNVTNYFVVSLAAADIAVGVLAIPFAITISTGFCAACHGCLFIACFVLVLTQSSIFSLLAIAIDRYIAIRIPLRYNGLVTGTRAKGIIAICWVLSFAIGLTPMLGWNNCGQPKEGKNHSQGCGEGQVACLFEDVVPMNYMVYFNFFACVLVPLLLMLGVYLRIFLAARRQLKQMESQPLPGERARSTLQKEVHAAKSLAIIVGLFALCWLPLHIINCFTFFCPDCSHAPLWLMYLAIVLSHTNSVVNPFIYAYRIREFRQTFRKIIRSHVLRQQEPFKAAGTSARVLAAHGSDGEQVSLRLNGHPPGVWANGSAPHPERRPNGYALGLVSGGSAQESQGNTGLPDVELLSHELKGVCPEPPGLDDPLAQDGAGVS
The target of the next experiment is Dopamine D1 (Homo sapiens, UniProt P21728). In words: Eurofins Hit Profiling Screen. Particulars: 10 μmol/L. Type of experiment: binding.
Sequence of Dopamine D1 (P21728 whole entry): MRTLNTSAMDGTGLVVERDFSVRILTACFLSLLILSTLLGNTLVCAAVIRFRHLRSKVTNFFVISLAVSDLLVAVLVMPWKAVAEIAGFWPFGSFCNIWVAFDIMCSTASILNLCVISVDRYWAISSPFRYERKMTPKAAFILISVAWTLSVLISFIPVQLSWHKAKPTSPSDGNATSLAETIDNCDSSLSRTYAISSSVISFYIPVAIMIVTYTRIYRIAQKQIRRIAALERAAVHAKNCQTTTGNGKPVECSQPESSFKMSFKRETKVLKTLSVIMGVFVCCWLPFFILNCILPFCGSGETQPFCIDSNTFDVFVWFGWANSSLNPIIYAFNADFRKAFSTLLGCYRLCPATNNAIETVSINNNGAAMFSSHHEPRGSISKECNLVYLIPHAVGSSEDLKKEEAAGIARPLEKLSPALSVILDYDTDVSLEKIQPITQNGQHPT
In experiment [2] the test system is fibrotic marker genes in the liver. Put plainly: CCl4-induced liver fibrosis: mRNA expression of fibrotic markers in whole liver homogenates. Format: in vivo, Sprague Dawley rats. Particulars: PXS-5153A treatment. As for the experimental part:
The study was performed by Pharmalegacy with approval from local ethics committee. Sprague Dawley rats were orally administered with 0.25 μL/g Carbon tetrachloride (CCl4) in olive oil solution, starting from day 0, 3 times per week for 6 weeks. Animals were killed 48 hours after the last CCl4 administration. PXS‐5153A was given by oral gavage after 3 weeks of CCl4 administration and continued throughout the remainder of the study at 3 mg/kg (low dose) or 10 mg/kg (high dose) once a day or 10 mg/kg (high dose) three times a week. Alanine aminotransferase (ALT) and aspartate aminotransferase (AST) levels were assessed in the plasma. One lobe of the liver tissue was fixed in 10% formalin, stained for Sirius red and the percentage coverage area was measured. The remainder of the liver was snap frozen and used for protein, hydroxyproline and crosslink analysis.
Total RNA was extracted with the PureLink RNA Mini Kit according to the manufacturer's instructions (Ambion), followed by the cDNA synthesis using SuperScript VILO cDNA Synthesis Kit (Life technologies). Gene expression was measured by the 2^−ΔΔCT method using ABI7500 (Applied Biosystems) with the ABI TaqMan primer sets as specified in the supporting information.
Data was normalised to expression of the internal quantitative control (GAPDH) and expressed as the fold-change compared to the Sham treatment group.

For the next experiment, the target named is Sigma σ1 (Homo sapiens, UniProt Q99720). Put plainly: Eurofins Hit Profiling Screen. Conditions: 10 μmol/L. Format: binding.
Sequence of Sigma σ1 (Q99720 whole entry): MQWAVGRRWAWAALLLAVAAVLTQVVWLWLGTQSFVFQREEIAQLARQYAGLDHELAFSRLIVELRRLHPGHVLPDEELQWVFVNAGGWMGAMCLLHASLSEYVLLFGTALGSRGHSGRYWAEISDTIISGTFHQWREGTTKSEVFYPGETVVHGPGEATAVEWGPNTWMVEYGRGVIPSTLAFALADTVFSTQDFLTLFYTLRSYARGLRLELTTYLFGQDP
Experiment [3] relates to Calcium Channel L-Type, Dihydropyridine. Put plainly: Eurofins Hit Profiling Screen. Type of experiment: binding, rat. Particulars: 10 μmol/L.
The target of experiment [4] is T2, LOXL2 (Homo sapiens, UniProt Q9Y4K0).
T2 sequence (Q9Y4K0 26-774): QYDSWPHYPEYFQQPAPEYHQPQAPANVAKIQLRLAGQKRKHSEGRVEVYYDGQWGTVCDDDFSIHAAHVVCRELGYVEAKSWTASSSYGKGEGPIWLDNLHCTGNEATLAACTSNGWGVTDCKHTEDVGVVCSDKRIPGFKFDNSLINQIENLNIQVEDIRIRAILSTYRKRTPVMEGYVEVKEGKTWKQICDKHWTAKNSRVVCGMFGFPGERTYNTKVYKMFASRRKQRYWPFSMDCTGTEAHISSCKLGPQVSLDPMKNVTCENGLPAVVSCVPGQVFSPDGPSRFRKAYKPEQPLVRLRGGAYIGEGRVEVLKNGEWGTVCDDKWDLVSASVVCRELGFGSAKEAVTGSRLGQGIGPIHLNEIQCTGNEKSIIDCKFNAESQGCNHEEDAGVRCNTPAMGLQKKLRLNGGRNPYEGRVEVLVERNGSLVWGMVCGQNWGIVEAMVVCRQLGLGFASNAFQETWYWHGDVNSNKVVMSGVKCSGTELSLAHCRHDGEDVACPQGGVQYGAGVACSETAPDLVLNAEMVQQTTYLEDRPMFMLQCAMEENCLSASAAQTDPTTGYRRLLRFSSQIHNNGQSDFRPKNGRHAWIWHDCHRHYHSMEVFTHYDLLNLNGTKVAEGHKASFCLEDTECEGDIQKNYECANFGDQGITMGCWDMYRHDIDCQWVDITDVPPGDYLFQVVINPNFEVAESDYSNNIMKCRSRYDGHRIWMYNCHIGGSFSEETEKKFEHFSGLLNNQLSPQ
Put plainly: Substrate competition (putrescine), LOXL2. Conditions: increasing concentrations of the substrate. Format: biochemical. As for the experimental part:
The measurement of the enzymatic activity of all lysyl oxidase family members was based on the detection of hydrogen peroxide with an Amplex-Red oxidation assay, as described in Zhou et al.[1]; miniaturised in 384 well format, with the appropriate combination of substrate and assay buffer for each individual enzyme. After a 30 minute pre-incubation of the enzyme at 37 °C with the test compound (or with different incubation times for the time-dependency assay), one volume of reaction mixture containing 120 μM Amplex Red (AR) (Life Technologies), 1.5 U/mL horseradish peroxidase (HRP) (Sigma-Aldrich) and the specific substrate was added to each sample. The relative fluorescence units (RFU) were then measured every 2.5 minutes for 30 minutes at 37°C, excitation 565 nm and emission 590, on a BMG Clariostar Microplate Reader. All the substrates were used at concentrations corresponding to their Km towards the corresponding enzyme, or with a range of different concentrations for the substrate competition experiments.
The measurement of substrate competition was based on the release of hydrogen peroxide as previously described. The target enzyme was incubated with the inhibitor, and differing concentrations of the substrate (putrescine) in reaction mixture and measured.

The next experiment deals with Adrenergic β2 (Homo sapiens, UniProt P07550). In words: Eurofins Hit Profiling Screen. Type of experiment: binding. Particulars: 10 μmol/L.
Sequence of Adrenergic β2 (P07550 whole entry): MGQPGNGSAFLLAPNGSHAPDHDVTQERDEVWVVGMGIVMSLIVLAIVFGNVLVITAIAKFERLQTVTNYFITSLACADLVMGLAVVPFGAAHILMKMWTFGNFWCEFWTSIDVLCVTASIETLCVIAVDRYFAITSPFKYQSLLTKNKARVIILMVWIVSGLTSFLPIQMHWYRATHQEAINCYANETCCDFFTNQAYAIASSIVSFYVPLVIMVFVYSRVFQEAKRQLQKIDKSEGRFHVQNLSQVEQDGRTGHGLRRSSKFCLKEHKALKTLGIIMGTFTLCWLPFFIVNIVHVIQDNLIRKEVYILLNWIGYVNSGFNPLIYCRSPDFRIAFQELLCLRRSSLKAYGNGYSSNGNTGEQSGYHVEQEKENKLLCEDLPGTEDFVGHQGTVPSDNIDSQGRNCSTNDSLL
The target of another experiment is Prostanoid EP4 (Homo sapiens, UniProt P35408). Put plainly: Eurofins Hit Profiling Screen. Format: binding. Conditions: 10 μmol/L.
Sequence of Prostanoid EP4 (P35408 whole entry): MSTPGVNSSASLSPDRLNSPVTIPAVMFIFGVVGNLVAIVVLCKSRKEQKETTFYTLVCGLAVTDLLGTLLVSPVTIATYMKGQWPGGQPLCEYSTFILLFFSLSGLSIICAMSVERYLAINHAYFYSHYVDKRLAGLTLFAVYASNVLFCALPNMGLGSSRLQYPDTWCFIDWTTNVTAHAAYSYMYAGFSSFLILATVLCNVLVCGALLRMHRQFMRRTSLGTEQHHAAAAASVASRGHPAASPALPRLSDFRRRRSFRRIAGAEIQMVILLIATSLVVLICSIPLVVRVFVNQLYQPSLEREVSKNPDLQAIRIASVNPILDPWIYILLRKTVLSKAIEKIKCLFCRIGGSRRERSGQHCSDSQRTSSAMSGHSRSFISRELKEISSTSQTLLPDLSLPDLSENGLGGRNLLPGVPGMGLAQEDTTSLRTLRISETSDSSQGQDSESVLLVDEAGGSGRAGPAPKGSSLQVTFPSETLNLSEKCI
The subject of a further experiment is Imidazoline I2, Central. Put plainly: Eurofins Hit Profiling Screen. Type of experiment: binding. Conditions: 10 μmol/L.

As for `Cc1c(-c2cccc(S(=O)(=O)N(C)C)c2)c2ncccc2n1C/C(F)=C/CN.Cl.Cl` [PXS-5153A], the IC50 is less than 40 nM with LOXL2 [1] and 38 nM on Native human LOXL2. For the same compound, the “pIC50 ± SD” value at Native human LOXL2 came out at 7.4 ± 0.12. For the same compound, the “% inhibition” value on Adenosine A2A is reported as 0%; at Dopamine D1, 6%; on Sigma σ1, 8%; in [3], 80%; at Adrenergic β2, -5%; at Prostanoid EP4, 11%. Besides, the “% inhibition” value in the experiment with Imidazoline I2, Central was 57%. Also, in [2], the “induction of key fibrotic marker genes in the liver” value is recorded as “suppressed the induction”. Also, the “substrate competition” value on LOXL2 [4] is “in a competitive manner”.
